# Tests used:
# PA-1 = test: three day MTT cytotoxicity assay; assay type: cell-based, human; conditions: PA-1 (ovary), 72 hours
# Procedure: (§1) A number of the cyclopentenone derivatives were tested for cytotoxicity against 9 human tumor cell lines. Briefly, a three day MTT cytotoxicity assay was performed, which is based on the principle of uptake of MTT (3-(4,5-dimethylthiazol-2-yl)-2,5-diphenyl tetrazolium bromide), a tetrazolium salt, by the metabolically active cells where it is metabolized by active mitochondria into a blue colored formazan product that is read spectrophotometrically. MTT was dissolved in phosphate buffered saline with a pH of 7.4 to obtain an MTT concentration of 5mg/ml; the resulting mixture was filtered through a 0.22 micron filter to sterilize and remove a small amount of insoluble residue. For each type of tumor cell, 10000 to 15000 cells were seeded in a 96-well culture plate and incubated with the individual cyclopentenone derivatives in a CO2 incubator for a total of 72 hours. Control cells not treated with the cyclopentenone derivatives were similarly incubated. The assay was terminated by adding 100 ug (20 ul) of MTT to each well, then incubating for additional one hour, and finally adding 50 ul of 10% SDS-0.01N HCl to each well to lyse the cells and dissolve formazan. After incubating for one hour, the plate was read spectrophotometrically at 540 nm and the percentage of cytotoxicity calculated using the following formula: Cytotoxicity percentage = 100 × [1-(X/R1)], [formula] where X = (absorbance of treated sample at 540 nm) - (absorbance of blank at 540 nm) R1 = absorbance of control sample at 540 nm.
# (§2) The ED50 Values of the cytotoxicity defined as the concentration at which 50 % of the cells are killed in vitro was calculated for each cell line treated with each of the cyclopentenone derivatives.
# (§3) The cell lines are PTC (all colon), MOLT-4 (leukemia), SW620 […], DU145 (prostate), KB (oral squamous cell), L132 (lung), MIAPaCa2 (Pancreas), Hep2, (larynx), PA-1 (ovary), HuTu80 (duodenum), ECV 304 (endothelial), and 293 (kidney).
# L132 = test: three day MTT cytotoxicity assay; assay type: cell-based, human; conditions: L132 (lung), 72 hours
# Procedure: as §1, §2, §3
# DU145 = test: three day MTT cytotoxicity assay; assay type: cell-based, human; conditions: DU145 (prostate), 72 hours
# Procedure: as §1, §2, §3
# MIAPaCa2 = test: three day MTT cytotoxicity assay; assay type: cell-based, human; conditions: MIAPaCa2 (Pancreas), 72 hours
# Procedure: as §1, §2, §3
# SW620 = test: three day MTT cytotoxicity assay; assay type: cell-based, human; conditions: 72 hours
# Procedure: as §1, §2, §3
# MOLT-4 = test: three day MTT cytotoxicity assay; assay type: cell-based, human; conditions: MOLT-4 (leukemia), 72 hours
# Procedure: as §1, §2, §3
# Hep2 = test: three day MTT cytotoxicity assay; assay type: cell-based, human; conditions: Hep2 (larynx), 72 hours
# Procedure: as §1, §2, §3
# ECV 304 = test: three day MTT cytotoxicity assay; assay type: cell-based, human; conditions: ECV 304 (endothelial), 72 hours
# Procedure: as §1, §2, §3
# KB = test: three day MTT cytotoxicity assay; assay type: cell-based, human; conditions: KB (oral squamous cell), 72 hours
# Procedure: as §1, §2, §3
# PTC = test: three day MTT cytotoxicity assay; assay type: cell-based, human; conditions: PTC (colon), 72 hours
# Procedure: as §1, §2, §3
# 293 = test: three day MTT cytotoxicity assay; assay type: cell-based, human; conditions: 293 (kidney), 72 hours
# Procedure: as §1, §2, §3
# HuTu80 = test: three day MTT cytotoxicity assay; assay type: cell-based, human; conditions: HuTu80 (duodenum), 72 hours
# Procedure: as §1, §2, §3
# tubulin = tubulin polymerization in vitro (absorbance at 340 nm); assay type: biochemical; conditions: tubulin 1mg/ml, 37°C, pH 6.9; read-out: IC50 values (uM) for inhibition of Tubulin Polymerization
# Procedure: The cyclopentenone derivatives were checked for their effects on tubulin polymerization in vitro. Briefly, the tubulin assembly reaction was performed at 37°C in buffer containing 80 mM PIPES, 1mM EGTA, 1.0 mM GTP and 1mM MgCl2 (pH 6.9) at a tubulin concentration of 1mg/ml in the presence or absence of the cyclopentenone derivatives. The final concentration of the cyclopentenone derivatives in the reaction mixture varied from 1-5uM. The derivatives were dissolved in 0.1% DMSO. The control experiments were carried out with 0.1% DMSO. The tubulin polymerization was followed by measurement of the absorbance of the solution at 340 nm every 30 seconds. […] Thus the cyclopentenone derivatives mediated their observed anticancer activities by tubulin depolymerization.
# VEGF = VEGF levels in ECV304 endothelial cells (ELISA); assay type: cell-based, Human; conditions: 5ug/ml, 4 hours
# Procedure: Human endothelial cells (ECV304) were plated at the density of 8-10 x10^5 cells per 2 ml in a six well plate. After an overnight incubation of cells at 37°C, cyclopentenone derivatives at a concentration of 5ug/ml was added to the wells. The untreated wells served as controls. The plates were incubated for 4 hours at 37°C. The medium was collected from all the wells (control and treated) and spun down at 2000 r.p.m to remove the cellular material. The supernatant was collected and used for ELISA (Quantikine human VEGF, R&D Systems). The assay employs the quantitative sandwich enzyme immunoassay technique. A monoclonal antibody specific for VEGF has been pre-coated onto a microplate. Standards and samples were pipetted into the wells and VEGF present was bound by the immobilized antibody. After washing away the unbound substances, an enzyme-linked polyclonal antibody specific for VEGF was added to the wells. Following a wash to remove any unbound antibody-enzyme reagent, a substrate solution was added to the wells and color developed in proportion to the amount of VEGF bound in the initial step. The optical density of each well was determined within 30 minutes using a microplate reader set to 450nm and reference wavelength at 540nm. The VEGF levels were inhibited by the addition of cyclopentenone derivatives in vitro.
# Caspase-3 = Caspase-3 induction in KB cells (colorimetric substrate DEVD-pNA); assay type: cell-based, Human; conditions: 5ug/ml
# Procedure: Human squamous cell carcinoma (KB) were plated in a 25 cm^2 flask. When cultures achieved confluence, the cyclopentenone derivative of structure 20 was added to the cells. The final concentration of derivative of the structure 20 in the flask was 5ug/ml. The untreated wells served as controls. The cells were incubated with the drug for 2 different time points of 6 and 16 hours at 37°C. The cells were collected by centrifugation at 2000 r.p.m. for 10 minutes. The supernatant was gently removed and discarded while Lysis Buffer was added to the cell pellet (25ul of lysis buffer per […]). The cell lysate was incubated on ice for 10 minutes and centrifuged at 10,000-x g for 1 minute. The supernatant was transferred to a new tube and kept on ice. 50ul of the cell lysate was added in a 96 well plate. To this was added 2x Reaction Buffer. Prior to using reaction buffer, 10ul of fresh DTT stock per 1 ml of 2x Reaction Buffer was added. To each well 5ul of Caspase-3 colorimetric substrate (DEVD-pNA) was added. The plate was incubated for 1-2 hours at […]. and read at 405nm.
# The level of caspase enzymatic activity in the cell lysate is directly proportional to the absorbance at 405nm. […]
SMILES,ED50 (ug/ml) PA1 (PA-1) [µg/mL],ED50 (ug/ml) L132 (L132) [µg/mL],ED50 (ug/ml) DU145 (DU145) [µg/mL],ED50 (ug/ml) MiaPaca (MIAPaCa2) [µg/mL],ED50 (ug/ml) SW620 (SW620; SW620 (ovary)) [µg/mL],ED50 (ug/ml) MOLT4 (MOLT-4) [µg/mL],ED50 (ug/ml) Hep2 (Hep2) [µg/mL],ED50 (ug/ml) ECV 304 (ECV 304) [µg/mL],ED50 (ug/ml) KB (KB) [µg/mL],ED50 (ug/ml) PTC (PTC) [µg/mL],ED50 (ug/ml) 293 293 [µg/mL],ED50 (ug/ml) HuTu80 (HuTu80) [µg/mL],ED50 (ug/ml) SW620 (SW620; SW620 (colon)) [µg/mL],IC50 (tubulin) [µM],Percent Reduction in VEGF (VEGF) [%],Percent Induction of Caspase-3 6 hours (Caspase-3) [%],Percent Induction of Caspase-3 16 hours (Caspase-3) [%]
"COc1ccc(C2=C(c3cc(OC)c(OC)c(OC)c3)C(=O)C(O[Si](C)(C)C(C)(C)C)C2)cc1 (stereo not shown) [Compound 52, O-tert-Butyldimethylsilyloxy-3-(4-methoxyphenyl)-2-(3,4,5-trimethoxyphenyl)-cyclopent-2-en-1-one]",7.0 ± 3.5,9.0 ± 2.5,28 ± 4.0,<1.0,5.0 ± 1.0,3.0 ± 1.5,16 ± 3.0,16 ± 4.0,7.0 ± 3.0,16 ± 3.6,,,,,,,
"COc1ccc(C2=C(c3cc(OC)c(OC)c(OC)c3)C(=O)C(O[Si](C)(C)C(C)(C)C)C2)cc1OC(C)C (stereo not shown) [Compound 56, 5-tert-Butyldimethylsilyloxy-3-(4-methoxy-3-i-propoxyphenyl)-2-(3,4,5-trimethoxyphenyl)-cyclopent-2-en-1-one]",7.1 ± 1.5,7,6.3 ± 2.1,>100,,22.5 ± 4.0,7.1 ± 1.5,>100,7.5 ± 3.5,>100,>100,6 ± 0.5,9 ± 1.5,,,,
"COc1ccc(C2=C(c3cc(OC)c(OC)c(OC)c3)C(=O)C(O)C2)cc1F (stereo not shown) [Compound 64, 5-Hydroxy-3-(3-fluoro-4-methoxyphenyl)-2-(3,4,5-trimethoxyphenyl)-cyclopent-2-en-1-one]",,<1,27 ± 3.5,64 ± 3.5,,,<1,19.5 ± 4.5,4.5 ± 1.5,20 ± 2.5,>100,<1,<1,,,,
"COc1cc(C2=C(c3ccc(SC)cc3)CC(O[Si](C)(C)C(C)(C)C)C2=O)cc(OC)c1OC (stereo not shown) [Compound 55, 5-tert-Butyldimethylsilyloxy-3-(4-thiomethylphenyl)-2-(3,4,5 trimethoxyphenyl)-cyclopent-2-en-1-one]",<1.0,<1.0,>100,<1.0,<1.0,<1.0,>100,>100,10 ± 1.5,14 ± 3.5,,,,,,,
COc1ccc(C2=C(c3cc(OC)c(OC)c(OC)c3)C(=O)C(O)C2)cc1O (stereo not shown) [Compound 74],,,,,,,,,,,,,,1.8 ± 0.5,16.9 ± 0.5,21.8 ± 2.8,28.4 ± 2.1
"COc1ccc(C2=C(c3cc(OC)c(OC)c(OC)c3)C(=O)C(O)C2)cc1Cl (stereo not shown) [Compound 67, 5-Hydroxy-3-(3-chloro-4-methoxyphenyl)-2-(3,4,5-trimethoxyphenyl)-cyclopent-2-en-1-one]",,<1,40 ± 8.5,>100,<1,,<1,20 ± 3.5,2.5 ± 0.1,30 ± 4.0,>100,29 ± 2.5,,,,,
COc1ccc(C2=C(c3cc(OC)c(OC)c(OC)c3)C(=O)C(O)C2)cc1 (stereo not shown) [Compound 48],<1.0,9.0 ± 3.3,>100,79 ± 9.5,<1.0,<1.0,<1.0,>100,8 ± 2.1,6.0 ± 1.5,,,,2.1 ± 0.1,23.7 ± 2.2,18.4 ± 1.1,22.7 ± 1.5
